# Laboratory results from patent publication US12064482B2, “Triplet-triplet energy transfer with light excitation at long wavelengths and methods thereof” (THE UNIVERSITY OF HONG KONG, priority 2018, dated 2024).
# Assays:
# [1] = literature ref. [10]; cited from earlier work
# [2] = Photocleavage of BODIPY-CAB and photorelease of CAB in solution, determined by HPLC; format: physicochemical
# From the text: FIG. 4. HPLC spectra of CAB (10^−4 M), PtTPBP (10^−5 M), BODIPY-CAB (10^−4 M), BODIPY-CAB (10^−4 M) with 530 nm irradiation (44 mW/cm^2) for 15 s under N2 atmosphere, the mixture of BODIPY-CAB (10^−4 M) and PtTPBP (10^−5 M) with 625 nm irradiation (44 mW/cm^2) for 15 s under N2 atmosphere, the mixture of BODIPY-CAB (10^−4 M) and PtTPBP (10^−5 M) without irradiation under N2 atmosphere, and BODIPY-CAB (10^−4 M) with 625 nm irradiation (44 mW/cm^2) for 15 s under N2 atmosphere. The detection wavelength was 260 nm. A small amount of toluene, whose peak was located at ˜8.7 min, was used to increase the solubility of PtTPBP. The yellow arrows indicate the signal of CAB; the red arrows indicate the signal of BODIPY-CAB; and the green arrows indicate the signal of PtTPBP.
# FIG. 5. Photocleavage rate of the prodrug (BODIPY-CAB), as determined by HPLC (detected at 540 nm), after irradiation with 625 nm LED light at 44 mW/cm^2. The mixed solution of BODIPY-CAB (10^−4 M) and PtTPBP (10^−5 M, […] or 0 M) was protected under nitrogen (N2) or exposed in the air, and then irradiated for different time periods in the mixed solvents of dichloromethane (DCM) and methanol (1:9, v/v). The solution (50 μL) was then analyzed by HPLC to measure the concentration of BODIPY-CAB. Data are means±SD, n=3.
# FIG. 6. Photorelease of the free drug (CAB), as determined by HPLC (detected at 260 nm), after irradiation with 625 nm LED light at 44 mW/cm^2. The mixed solution of BODIPY-CAB (10^−4 M) and PtTPBP ([…], 5×10^−6 M, 10^−6 M or 0 M) was protected under nitrogen (N2) or exposed in the air, and then irradiated for different time periods in the mixed solvents of dichloromethane (DCM) and methanol (1:9, v/v). The solution (50 μL) was then analyzed by HPLC to measure the concentration of CAB. Data are means f SD, n=3.
# The intermediates and the final product were characterized by proton nuclear magnetic resonance (^1H NMR) spectra (FIG. 12-FIG. 15). The absorption and emission peaks of BODIPY-CAB were located at the wavelength of 543 nm and 567 nm, respectively (FIG. 3). To confirm whether the BODIPY prodrug could be sensitized by PtTPBP and could further be cleaved to release the drug, high performance liquid chromatography (HPLC) was utilized to monitor the generation of CAB. […] After addition of photosensitizer PtTPBP, the mixture solution of PtTPBP and BODIPY-CAB was irradiated with 625 nm light for 15 sec.
# Furthermore, the photocleavage of BODIPY-CAB was investigated with different ratios of BODIPY-CAB and PtTPBP upon 625 nm light irradiation. […] When the concentration of photosensitizer was decreased, the photocleavage of BODIPY-CAB slowed down. […] Moreover, as O2 can quench the triplet excited state of PtTPBP, the prodrug cannot be cleaved efficiently in the presence of O2.
SMILES,cytotoxicity [1],"generation of CAB (HPLC) ([2]; 530 nm (44 mW/cm^2), 15 s, no photosensitizer, N2)","generation of CAB (HPLC) ([2]; 625 nm (44 mW/cm^2), 15 s, with PtTPBP, N2)","generation of CAB (HPLC) ([2]; 625 nm, 15 s, in the absence of PtTPBP, N2)","rate of photocleavage and photorelease ([2]; 625 nm, with PtTPBP, in the air atmosphere (O2))","prodrug remained in the solution ([2]; BODIPY-CAB:PtTPBP 100:1, 625 nm LED 44 mW/cm^2, 30 s, N2) [%]","photocleavage of the prodrug ([2]; BODIPY-CAB:PtTPBP 100:10, 625 nm LED 44 mW/cm^2, 15 s, N2)","free drug CAB released ([2]; BODIPY-CAB:PtTPBP 100:10, 625 nm LED 44 mW/cm^2, 15 s, N2, DCM/methanol 1:9) [%]","generation of CAB (HPLC) ([2]; mixture with PtTPBP not irradiated, N2)"
"[Pt+2].c1ccc(-c2c3nc(c(-c4ccccc4)c4[n-]c(c(-c5ccccc5)c5nc(c(-c6ccccc6)c6[n-]c2c2ccccc62)-c2ccccc2-5)c2ccccc42)-c2ccccc2-3)cc1 [PtTPBP, platinum (II) tetraphenyltetrabenzoporphyrin]",minimal,–,–,–,–,–,–,–,–
CC1=C(I)C(C)=[N+]2C1=C(COC(=O)CCCc1ccc(N(CCCl)CCCl)cc1)c1c(C)c(I)c(C)n1[B-]2(C)C [BODIPY-CAB],–,leads to the release of CAB,new peak located at ˜11.2 min was appeared,did not generate CAB,dramatically deceased rate of photocleavage and photorelease,59.6,almost cleaved completely,41.7,did not generate CAB
